Test results published in PubChem BioAssay (NCI).
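These data come from cells grown in 96-well plates and exposed to compound for 48 hours at five concentrations. The concentration for 50% growth inhibition is given as GI50. Definition used: TGI = concentration required for complete inhibition of growth.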

Key:
Experiment in all cases: NCI tumour cell line growth inhibition, 48 h
[1] = tested on: SR leukemia
[2] = tested on: SF-268 CNS
[3] = tested on: MDA-MB-435
[4] = tested on: UACC-257 melanoma
[5] = tested on: OVCAR-5 ovarian
[6] = tested on: K-562 leukemia
[7] = tested on: OVCAR-4 ovarian
[8] = tested on: RXF 393 renal
[9] = tested on: HT29 colon
[10] = tested on: MCF7 breast

Structure (SMILES)	GI50 [1]	TGI [1]	GI50 [2]	TGI [2]	GI50 [3]	TGI [3]	GI50 [4]	TGI [4]	GI50 [5]	TGI [5]	GI50 [6]	TGI [6]	GI50 [7]	TGI [7]	GI50 [8]	TGI [8]	GI50 [9]	TGI [9]	GI50 [10]	TGI [10]
COc1cccc(/C(C#N)=C/c2nc3c(N4CCOCC4)nc(Cl)nc3n2C)c1	0.355 µM	2.44 µM	1.57 µM	3.17 µM	1.25 µM	2.61 µM	1.41 µM	2.9 µM	1.55 µM	3.57 µM	0.447 µM	10.3 µM	1.23 µM	2.59 µM	1.02 µM	2.23 µM	0.351 µM	1.36 µM		
O=C(O)c1ccc(NCn2nc(-c3ccccc3O)oc2=S)cc1			96.4 µM	> 100 µM	> 100 µM	> 100 µM	> 100 µM	> 100 µM	> 100 µM	> 100 µM	40.7 µM	> 100 µM			67.9 µM	> 100 µM	38.6 µM	> 100 µM	49.1 µM	> 100 µM
COC(=O)c1cc2c3ccccc3n3c(=O)c4cc5ccc(N(S(=O)(=O)c6ccc(C)cc6)S(=O)(=O)c6ccc(C)cc6)cc5nc4c(n1)c23			39.2 µM	> 100 µM	> 100 µM	> 100 µM	> 100 µM	> 100 µM	> 100 µM	> 100 µM	39.4 µM	> 100 µM	> 100 µM	> 100 µM	13.1 µM	37.8 µM	> 100 µM	> 100 µM	> 100 µM	> 100 µM
COC/C=C\COC								> 100 µM		> 100 µM		> 100 µM		> 100 µM		> 100 µM		> 100 µM		
CC(=O)N/N=C1\CC(C)(C)C2CCC1C2 (centres undefined)				> 100 µM				> 100 µM		> 100 µM		> 100 µM		> 100 µM		> 100 µM				
CC(=O)c1ccc2c(c1)C1C=CCC1[C@H](c1cc3c(cc1Br)OCO3)N2 (some centres undefined)	0.519 µM	6.15 µM	0.67 µM	19.1 µM			5.34 µM	27 µM	3.01 µM	> 38.8 µM	0.794 µM		1.63 µM	> 50.2 µM	1.85 µM	3.35 µM	0.653 µM	13 µM	0.368 µM	18.9 µM
CCCNC(=O)C1C(=O)C(=O)N(CCC)C1=O (centres undefined)				> 100 µM				> 100 µM		> 100 µM		> 100 µM		> 100 µM		> 100 µM		> 100 µM		
N/N=C1\C(=O)N(C2CCCCCC2)C(=O)C1C(=O)NC1CCCCCC1 (centres undefined)				> 100 µM				> 100 µM		> 100 µM		> 100 µM		> 100 µM		69.8 µM		> 100 µM		
CC1=C[C@H]2c3c([nH]c4ccccc34)C(c3c[nH]c4ccccc34)[C@H]2CC1 (some centres undefined)								27.9 µM				12.7 µM				4.19 µM		11.5 µM		
